In patent US20260042762A1 (Kymera Therapeutics, Inc., priority 2018, published 2026) one finds Dmax data, which are given here for 12 compounds.

The structures appear in SMILES notation. Bounds are passed on as bounds.

The target of this experiment is T1, MerTK (Homo sapiens, UniProt Q12866).
T1 construct: endogenous in cells; host or cells: Jurkat cells
T1 sequence (Q12866 21-999): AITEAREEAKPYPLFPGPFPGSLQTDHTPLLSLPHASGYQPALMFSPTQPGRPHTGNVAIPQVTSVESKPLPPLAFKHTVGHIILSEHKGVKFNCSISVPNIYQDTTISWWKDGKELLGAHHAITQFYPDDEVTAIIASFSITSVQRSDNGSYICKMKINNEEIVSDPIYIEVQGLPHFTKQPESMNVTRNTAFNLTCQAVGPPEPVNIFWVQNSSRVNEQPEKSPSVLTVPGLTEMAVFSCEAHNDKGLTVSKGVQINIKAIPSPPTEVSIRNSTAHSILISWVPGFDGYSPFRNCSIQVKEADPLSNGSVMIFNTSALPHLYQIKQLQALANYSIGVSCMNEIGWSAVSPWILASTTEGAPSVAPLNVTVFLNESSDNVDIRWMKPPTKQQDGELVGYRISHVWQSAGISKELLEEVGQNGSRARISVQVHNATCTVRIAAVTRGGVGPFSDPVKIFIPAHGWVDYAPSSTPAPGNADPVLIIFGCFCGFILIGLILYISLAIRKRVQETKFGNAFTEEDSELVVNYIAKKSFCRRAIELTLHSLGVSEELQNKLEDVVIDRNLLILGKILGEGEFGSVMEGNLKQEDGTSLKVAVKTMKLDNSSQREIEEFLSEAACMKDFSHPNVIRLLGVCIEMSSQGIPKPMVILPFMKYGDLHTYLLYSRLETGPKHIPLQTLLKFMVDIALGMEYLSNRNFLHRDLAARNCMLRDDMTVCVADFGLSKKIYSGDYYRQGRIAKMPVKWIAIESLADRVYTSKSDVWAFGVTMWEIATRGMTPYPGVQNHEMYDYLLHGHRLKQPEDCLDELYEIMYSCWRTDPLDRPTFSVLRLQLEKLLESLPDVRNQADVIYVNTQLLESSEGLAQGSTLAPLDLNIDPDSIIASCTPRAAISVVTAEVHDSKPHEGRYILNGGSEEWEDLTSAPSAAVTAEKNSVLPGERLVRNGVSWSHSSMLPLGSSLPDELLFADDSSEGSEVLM
Briefly: MerTk degradation in Jurkat cells (Western blot). The experiment is classed as cell-based. The following applies: Jurkat, 4 h, 0.001-1 μM, 4 hour-incubation at 37° C., read-out: Jurkat Max % MerTK Degradation. The method in brief:
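Jurkat cells treated 4 h at 37 °C with compound at 0.001-1 μM final. RIPA lysates quantified by BCA, then MerTK probed by Western blot against actin loading control with IR-dye secondaries and Odyssey imaging.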
In the case of `Cn1c(=O)n([C@H]2CCC(=O)NC2=O)c2ccc(C#CCOCCOCCN3CCN(Cc4ccc(-c5cn([C@H]6CC[C@H](O)CC6)c6nc(NCCC(F)(F)F)ncc56)cc4)CC3)cc21` [I-82, 3-(3-methyl-2-oxo-5-[3-[2-(2-[4-[(4-[7-[trans-4-hydroxycyclohexy1]-2-[(3,3,3-trifluoropropyl)amino]-7H-pyrrolo[2,3-d]pyrimidin-5-yl]phenyl)methyl]piperazin-1-yl]ethoxy)ethoxy]prop-1-yn-1-yl]-2,3-dihydro-1H-1,3-benzodiazol-1-yl)piperidine-2,6-dione], the Dmax is over 50%.
To `Cn1c(=O)n([C@H]2CCC(=O)NC2=O)c2ccc(CCCOCCCN3CCN(Cc4ccc(-c5cn(C6CCCCC6)c6nc(NCCC(F)(F)F)ncc56)cc4)CC3)cc21` [I-83, 3-[5-[3-(3-[4-[(4-[7-cyclohexyl-2-[(3,3,3-trifluoropropyl)amino]-7H-pyrrolo[2,3-d]pyrimidin-5-yl]phenyl)methyl]piperazin-1-yl]propoxy)propyl]-3-methyl-2-oxo-2,3-dihydro-1H-1,3-benzodiazol-1-yl]piperidine-2,6-dione;] belongs over 50%; to `Cn1c(=O)n([C@H]2CCC(=O)NC2=O)c2ccc(CCCOCCCCN3CCN(Cc4ccc(-c5cn(C6CCCCC6)c6nc(NCCC(F)(F)F)ncc56)cc4)CC3)cc21` [I-84, 3-[5-[3-(4-[4-[(4-[7-cyclohexy1-2-[(3,3,3-trifluoropropyl)amino]-7H-pyrrolo[2,3-d]pyrimidin-5-y1]phenyl)methyl]piperazin-1-yl]butoxy)propyl]-3-methyl-2-oxo-2,3-dihydro-1H-1,3-benzodiazol-1-yl]piperidine-2,6-dione], over 50%; to `Cn1c(=O)n(C2CCC(=O)NC2=O)c2ccc(C#CCOCCN3CCC(N4CCN(Cc5ccc(-c6cn([C@H]7CC[C@H](O)CC7)c7nc(NCCC(F)(F)F)ncc67)cc5)CC4)C3)cc21` (stereo partly drawn) [I-85, 3-(3-methyl-2-oxo-5-[3-[2-(3-[4-[(4-[7-[trans-4-hydroxycyclohexyl]-2-[(3,3,3-trifluoropropyl)amino]-7H-pyrrolo[2,3-d]pyrimidin-5-yl]phenyl)methyl]piperazin-1-yl]pyrrolidin-1-yl)ethoxy]prop-1-yn-1-y1]-2,3-dihydro-1H-1,3-benzodiazol-1-y1)piperidine-2,6-dione; di(formic acid)], over 50%.
To `Cn1c(=O)n([C@H]2CCC(=O)NC2=O)c2ccc(C#CCOCCN3CCC(N4CCN(Cc5ccc(-c6cn([C@H]7CC[C@H](O)CC7)c7nc(NCCC(F)(F)F)ncc67)cc5)CC4)CC3)cc21` [I-86, 3-(3-methyl-2-oxo-5-[3-[2-(4-[4-[(4-[7-[trans-4-hydroxycyclohexy1]-2-[(3,3,3-trifluoropropyl)amino]-7H-pyrrolo[2,3-d]pyrimidin-5-yl]phenyl)methyl]piperazin-1-yl]piperidin-1-yl)ethoxy]prop-1-yn-1-yl]-2,3-dihydro-1H-1,3-benzodiazol-1-yl)piperidine-2,6-dione; formic acid] belongs over 50%; to `Cn1c(=O)n(C2CCC(=O)NC2=O)c2ccc(C#CCOCCN3CCCC(N4CCN(Cc5ccc(-c6cn([C@H]7CC[C@H](O)CC7)c7nc(NCCC(F)(F)F)ncc67)cc5)CC4)C3)cc21` (stereo partly drawn) [I-87, 3-(3-methyl-2-oxo-5-[3-[2-(3-[4-[(4-[7-[trans-4-hydroxycyclohexyl]-2-[(3,3,3-trifluoropropyl)amino]-7H-pyrrolo[2,3-d]pyrimidin-5-yl]phenyl)methyl]piperazin-1-yl]piperidin-1-yl)ethoxy]prop-1-yn-1-y1]-2,3-dihydro-1H-1,3-benzodiazol-1-y1)piperidine-2,6-dione; formic acid], over 50%.
For `Cn1c(=O)n([C@H]2CCC(=O)NC2=O)c2ccc(CCCOCCOCCN3CCN(Cc4ccc(-c5cn([C@H]6CC[C@H](O)CC6)c6nc(NCCCF)ncc56)cc4)CC3)cc21` [I-88, 3-(5-[3-[2-(2-[4-[(4-[2-[(3-fluoropropyl)amino]-7-[trans-4-hydroxycyclohexyl]-7H-pyrrolo[2,3-d]pyrimidin-5yl]phenyl)methyl]piperazin-1-yl]ethoxy)ethoxy]propyl]-3-methyl-2-oxo-2,3-dihydro-1H-1,3-benzodiazol-1-yl)piperidine-2,6-dione; formic acid] the value was over 50%; for `CCCCNc1ncc2c(n1)n([C@H]1CC[C@H](O)CC1)cc2[C@H]1CC[C@@H](CN2CCN(CCOCCOCCOCCOCCCc3ccc4c(c3)n(C)c(=O)n4[C@H]3CCC(=O)NC3=O)CC2)CC1` [I-89, 3-[3-methyl-2-oxo-5-[1-(4-[[(1s,4s)-4-[2-(butylamino)-7-[trans-4-hydroxycyclohexy1]-7H-pyrrolo[2,3-d]pyrimidin-5-yl]cyclohexyl]methyl]piperazin-1-yl)-3,6,9,12-tetraoxapentadecan-15-yl]-2,3-dihydro-1H-1,3-benzodiazol-1-yl]piperidine-2,6-dione; di(formic acid)], over 50%; for `CCCCNc1ncc2c(n1)n([C@H]1CC[C@H](O)CC1)cc2[C@H]1CC[C@H](CN2CCN(CCOCCOCCOCCOCCCc3ccc4c(c3)n(C)c(=O)n4[C@H]3CCC(=O)NC3=O)CC2)CC1` [I-90, 3-[3-methyl-2-oxo-5-[1-(4-[[(1r,4r)-4-[2-(butylamino)-7-[trans-4-hydroxycyclohexy1]-7H-pyrrolo[2,3-d]pyrimidin-5-yl]cyclohexyl]methyl]piperazin-1-yl)-3,6,9,12-tetraoxapentadecan-15-y1]-2,3-dihydro-1H-1,3-benzodiazol-1-yl]piperidine-2,6-dione], over 50%.
Regarding `Cn1c(=O)n([C@H]2CCC(=O)NC2=O)c2ccc(CCCOCCN3CC(N4CCN(Cc5ccc(-c6cn([C@H]7CC[C@H](O)CC7)c7nc(NCCC(F)(F)F)ncc67)cc5)CC4)C3)cc21` [I-91, 3-(3-methyl-2-oxo-5-[3-[2-(3-[4-[(4-[7-[trans-4-hydroxycyclohexy1]-2-[(3,3,3-trifluoropropyl)amino]-7H-pyrrolo[2,3-d]pyrimidin-5-y1]phenyl)methyl]piperazin-1-yl]azetidin-1-yl)ethoxy]propyl]-2,3-dihydro-1H-1,3-benzodiazol-1-yl)piperidine-2,6-dione; formic acid], the Dmax was over 50%.
For `Cn1c(=O)n([C@H]2CCC(=O)NC2=O)c2ccc(C#CCOCCN3CC(N4CCN(Cc5ccc(-c6cn([C@H]7CC[C@H](O)CC7)c7nc(NCCC(F)(F)F)ncc67)cc5)CC4)C3)cc21` [I-92, 3-(3-methyl-2-oxo-5-[3-[2-(3-[4-[(4-[7-[trans-4-hydroxycyclohexy1]-2-[(3,3,3-trifluoropropyl)amino]-7H-pyrrolo[2,3-d]pyrimidin-5-yl]phenyl)methyl]piperazin-1-yl]azetidin-1-yl)ethoxy]prop-1-yn-1-y1]-2,3-dihydro-1H-1,3-benzodiazol-1-y1)piperidine-2,6-dione; formic acid] the value was over 50%; for `Cn1c(=O)n(C2CCC(=O)NC2=O)c2ccc(CCCOCCN3CCC(N4CCN(Cc5ccc(-c6cn([C@H]7CC[C@H](O)CC7)c7nc(NCCC(F)(F)F)ncc67)cc5)CC4)C3)cc21` (stereo partly drawn) [I-93, 3-(3-methyl-2-oxo-5-[3-[2-(3-[4-[(4-[7-[trans-4-hydroxycyclohexy1]-2-[(3,3,3-trifluoropropyl)amino]-7H-pyrrolo[2,3-d]pyrimidin-5-yl]phenyl)methyl]piperazin-1-yl]pyrrolidin-1-y1)ethoxy]propyl]-2,3-dihydro-1H-1,3-benzodiazol-1-yl)piperidine-2,6-dione; formic acid], over 50%.
